The experiment concerns the target T1, Ammonium transporter MEP2 (Saccharomyces cerevisiae (strain ATCC 204508 / S288c), UniProt P41948).
T1 sequence (P41948 whole entry): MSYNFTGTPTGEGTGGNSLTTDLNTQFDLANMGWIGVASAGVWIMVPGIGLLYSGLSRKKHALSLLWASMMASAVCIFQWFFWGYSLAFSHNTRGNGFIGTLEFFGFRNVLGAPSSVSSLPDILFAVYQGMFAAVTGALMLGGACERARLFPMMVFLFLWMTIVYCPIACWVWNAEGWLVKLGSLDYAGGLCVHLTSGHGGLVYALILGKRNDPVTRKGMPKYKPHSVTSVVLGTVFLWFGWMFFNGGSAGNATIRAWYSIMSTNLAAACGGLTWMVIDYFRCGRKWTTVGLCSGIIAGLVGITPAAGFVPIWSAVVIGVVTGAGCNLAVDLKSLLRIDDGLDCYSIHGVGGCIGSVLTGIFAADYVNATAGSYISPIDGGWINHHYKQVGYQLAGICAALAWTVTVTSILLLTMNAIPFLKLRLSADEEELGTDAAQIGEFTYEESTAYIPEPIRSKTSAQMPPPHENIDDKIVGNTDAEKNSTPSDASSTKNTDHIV
Description: compound effects on MEP2-GFP, TOR pathway – S. cerevisiae, multiplex GFP fusions, cherry pick 3, SAR follow-up (AID 488812). The note with it: inactive by the depositor's call.

In BindingDB's records for doi:10.7270/Q2MW2FMC (Nmmlsc, 2011) one finds EC50 data, which are given here for three molecules.

The structures appear in SMILES notation.

As usually defined, the EC50 is the midpoint of the concentration-response curve. Higher therefore signals weaker potency. As for `CCOC(=O)CS(=O)(=O)c1nc(-c2ccccc2)cc(C(F)(F)F)n1` [2-[4-phenyl-6-(trifluoromethyl)pyrimidin-2-yl]sulfonylacetic acid ethyl ester], the half-maximal effective concentration (EC50) worked out at 68.2 µM.

In turn, `Oc1c(Cl)cc(Cl)c2cccnc12` [AS-229] returned an EC50 of 36100 µM.

With `Nc1ncnc(Nc2cc(Cl)cc(Cl)c2)c1[N+](=O)[O-]` [MLS000581561], the response was half-maximal at 74.4 µM (EC50).
